Laboratory results: article PMC5435687 (Scientific Reports, 2017)
Several values for one entry are separate records, joined by “and”; a condition that tells them apart may be missing. Equal values may be shown once.

Tests used:
SH-SY5Y cells [1] = assay: Confocal imaging based quantification of cellular uptake of Aβ; type: cell-based, human; details: for number of internalised Aβ peptides per cell (rounded): SH-SY5Y, 1 µM peptide, 8 h, imaging-based quantification, order-of-magnitude statement; for intravesicular Aβ concentration: re-calculated from molecules per cell (1 µM, 8 h) under assumption of total lysosomal load of 10 μm^3 per cell
Experimental: The samples were washed 1x in serum free medium prior to incubation with Aβ peptides and/or other reagents also in serum free medium that was supplemented with 30 mM HEPES and 2% B-27. For experiments including Trf B-27 was omitted as it, according to the media formulation provided by the manufacturer, contains unlabelled Trf that interferes with the experiment. Prior to imaging, cells were stained with 50 nM LysoTracker Deep Red for 30 min and 5 µg/ml Hoechst 33342 was added during the last 10 min of incubation. The cells were thereafter washed 1x, treated with 5 µg/ml FM 4–64 and imaged immediately (for labelling of cellular membrane) or after 10 min incubation at 37 °C (for labelling of cellular membrane and endocytic vesicles). Confocal images were acquired either on a Nikon C2+ confocal microscope equipped with a C2-DUVB GaAsP Detector Unit and using an oil-immersion 60 × 1.4 Nikon APO objective (Nikon Instruments, Amsterdam, Netherlands), or on a home-built Thorlabs CLS system equipped with a Galvo:Resonant scanner, a Multi-Channel Fiber-Coupled laser source and High-Sensitivity GaAsP PMT detectors recording onto ThorImageLS software (Thorlabs Inc, New Jersey, U.S.A.). The scanner unit was mounted onto a Leica DMIRB microscope equipped with an oil immersion 63x NA 1.47 Leica HCX PL APO objective for imaging and co-localisation analysis, or a 40x NA 0.55 Leica N PLAN L CORR air objective for quantification of peptide uptake. The sample was excited and detected sequentially with appropriate excitation laser lines and emission filters.
Images were captured with an open pinhole, corresponding to 7.8 airy units (AUs), in order to sample intensity from intracellular peptide throughout the full thickness of the cells. First, to determine an accurate sampling depth, images were acquired at three focal planes separated by 1 µm between each and analysed for matched summed intracellular intensity. Next, images were acquired with identical settings from a field of view with on average 25 cells/image. […] To obtain the total Aβ emission intensity per cell, all pixel values were summed and divided by the total number of cells in the image (the cell number was determined from the number of nuclei visible in the Hoechst emission channel). […] The mean intensity per pixel was calculated and related to concentration by performing a linear regression of mean intensity from three samples per concentration. The imaging depth was calculated based on imaging parameters and objective specifications generating a point spread function (PSF) for the focal spot. The resulting voxel size was calculated to be 740 nm in the axial direction, whereby 2.5x this voxel was determined to be representative of the sampling probe depth. […]

SH-SY5Y cells [2] = assay: Aβ uptake under pharmacological inhibition of endocytic mechanisms (flow cytometry); type: cell-based, human; details: for effect of CPZ on Aβ uptake: 5 µg/ml CPZ; for reduction in Aβ uptake with cytochalasin A or D: 10 µM cytochalasin A or 25 µg/ml cytochalasin D
Experimental: Flow cytometry was used to quantify cellular uptake. […] For experiments including Trf B-27 was omitted, as outlined above. […] All samples were kept on ice until they were analysed on a Guava EasyCyte 8HT (Millipore, Darmstadt, Germany) that automatically retrieves samples from a 96-well plate. In order to exclude effects due to difference in delay time we used mixed order of analysis, loading only a few samples at a time with the remaining samples kept on ice. The cell counting gate was determined using propidium iodide (0.5 µM, not washed away prior to analysis) and calcein-AM (10 nM, 15 min staining) to distinguish live and dead cells, and for each sample 5,000 cells from within the live gate were counted and analysed. HF488, AlexaFluor488, EGFP and calcein-AM were excited by a 488 nm laser and their fluorescence was detected through a 525/30 nm filter. Propidium iodide and mRFP were excited by the 488 nm laser but detected through a 692/46 nm filter. HF647 and AlexaFluor647 were excited with a 635 nm laser and detected through a 661/19 nm filter. Compensation was performed to adjust for bleed through in experiments including mRFP. Mean cellular uptake was estimated as the average fluorescence intensity of all cells gated within the live region and all individual experiments were performed with three technical replicates (n = 3) unless else is stated. The average fluorescence intensity was baseline corrected by subtracting the signal for unstained cells.
Endocytic mechanisms were also perturbed by treatment of cells with pharmacological inhibitors. Stock solutions of cytochalasin A, cytochalasin D, dynasore, wortmannin and IPA-3 were prepared in DMSO and diluted in serum-free cell culture media supplemented with 30 mM HEPES on the day of the experiment. The final DMSO concentration added to the cells was kept <0.1% and matched for the control. […] The cells were centrifuged 1000 * g for 5 min at 4 °C, washed 3x with ice-cold serum-free medium, followed by detachment and immediate flow cytometry analysis, as detailed above. […] Only the live cells were included in the analysis. Trf was used as a positive control for clathrin-mediated endocytosis. Due to the rapid uptake and recycling of internalized Trf we adopted an optimized protocol with sufficiently short Trf incubation times. First, to remove the quantities of membrane-bound Trf that originate from the serum component of the complete culture medium the cells were washed 3x in serum-free medium. The cells were then subjected to the inhibitors as described above and thereafter exposed to a 5 min pulse of 5 µg/ml Trf. To remove externally bound fluorescently labelled Trf the cells were thereafter washed (3x/2 min) in ice-cold acidic buffer (0.1 M Glycine-HCl buffer pH 2.5 with 150 mM NaCl)[35] whilst kept on ice. The cells were then harvested for flow cytometry analysis, and analysed one sample at a time with mixed order of analysis whilst keeping the remaining samples on ice.

[3] = 1 µM HF488-labelled Aβ 1 h, 4 independent experiments in triplicate
[4] = 30 min pre-incubation, 1 µM Aβ 1 h, n = 3

Substance	number of internalised Aβ peptides per cell (rounded) (SH-SY5Y cells [1])	intravesicular Aβ concentration (SH-SY5Y cells [1])	effect of CPZ on Aβ uptake (SH-SY5Y cells [2]; [3])	reduction in Aβ uptake with IPA-3 and wortmannin (SH-SY5Y cells [2]; 10 µM IPA-3 or 25 nM wortmannin, 30 min pre-incubation, 1 µM Aβ 1 h, n = 3)	reduction in Aβ uptake with cytochalasin A or D (SH-SY5Y cells [2]; [4])	effect of dynasore on Aβ uptake (SH-SY5Y cells [2]; 80 µM dynasore, 30 min pre-incubation, 1 µM HF488-labelled Aβ 1 h, 4 independent experiments in triplicate, ANOVA with Bonferroni)
Aβ(1–40): Synthetic 40 residue amyloid-β peptide conjugated to HiLyte Fluor HF488 (or HF647) at the N-terminus, from Anaspec	400,000 molecules per cell and ~ 400,000 molecules per cell	~ 60 µM	reductions	~ 50%	~ 30%	
Aβ(1–42): Synthetic 42 residue amyloid-β peptide conjugated to HiLyte Fluor HF488 (or HF647) at the N-terminus, from Anaspec	800,000 molecules per cell and ~ 800,000 molecules per cell	~ 140 µM	impaired to a greater extent than that of Aβ(1–40)		~ 70%	statistically significantly reduced
